Measurements published in US6607723B1, “Methods and compositions for attenuating antibody-mediated xenograft rejection in human recipients” (priority 1991, dated 2003).

Key:
[1] = system: pig kidney cell line (LLC-PK1); assay: Chromium release assay, plasma incubated with soluble carbohydrate haptens; assay type: cell-based; details: heat inactivated human plasma (O and A), 1 ml incubated overnight at 4° C. with 0.215 g hapten; FIGS. 8A and 8B
Method: Undiluted heat-inactivated plasma (100 μl) was incubated with 100 μl of chromium-labelled target cells (2×10^4 cells) in 96 well V bottom microtiter plates (Dynatech Lab., Chantilly, Va., U.S.A.: Cat.# 1-220-25X) at 37° C. for 1 hour with shaking (20 rpm). A 1/15 dilution of rabbit complement (LOWTOX-M from Cedarlane Laboratories Ltd., Hornby, Ontario, Canada: Cat.# CL3051) was added to each well. The plate was again incubated for 1 hour at 37° C. with shaking. Plates were then spun at 1000 rpm and supernatants were counted for chromium content in the Beckman gamma 4000 counter (Beckman Instruments, Inc., Fullerton, Calif., U.S.A.). Spontaneous and total release controls were also run. Spontaneous counts were always less than 5% of the total counts, and typical total counts of cells ranged from 10,000 to 20,000 cpm.
This procedure was done to investigate the potential for inhibiting human preformed cytotoxic antibodies with carbohydrate(s) haptens. […] The chromium release assay was then performed with treated and untreated plasma; the pig kidney cell line (LLC-PK1) was used as the target cell.

[2] = system: Human Anti-Pig Kidney antibodies; assay: ELISA: human antibodies eluted from pig kidney binding to carbohydrate-BSA antigens; details: BSA well O.D. subtracted
Method: (§1) Organs from two populations of pigs were used to purify human anti-pig antibodies. The pig strains were Poland China and Yorkshire. Antibody preparations were obtained by perfusing 100-200 ml of human plasma (O or AB) through pig hearts, pig kidneys or through a column containing solid support coated with pig red cell stroma. After washing the tissues thoroughly with 0.15 M NaCl, the retained antibodies were eluted from the tissue or column using 200 ml of 3M NaSCN. The antibodies were concentrated, and then the protein content determined. Carbohydrate antigens were made by covalent binding of the synthetic oligosaccharides with an aliphatic linking arm (CH2)8COOCH3 to BSA as described by Pinto and Bundle (1983)^19 and/or Lemieux, Bundle, Baker (U.S. Pat. No. 4,137,401)^13 (ten to twenty haptens per molecule of BSA). Example 5, infra, describes this procedure as applied to carbohydrate 2 of FIG. 1A. Structures and trivial names of some of the monosaccharides and oligosaccharides used are included in FIGS. 1A to 1H. The use of synthetic carbohydrate structures to detect antibody binding has been previously described in U.S. Pat. No. 4,137,401^13. The technology used for the ELISA assay for detecting anti-carbohydrate antibodies is a combination of the work from numerous groups. Wells in 96 microtitration plates (Flow Laboratories, Inc., McLean Va., U.S.A.) were coated by incubation at room temperature for 16 hours with 2 μg of BSA-glycoconjugates or BSA per well (20 μg BSA-conjugate/ml diluted in PBS). The coating solutions were removed and 200 μl/well of PBS containing 5% BSA was added. After a 4 hours incubation (22° C.), the wells were washed twice with PBS, then once with H2O. The plates were inverted, allowed to dry, and stored at room temperature. Immediately before testing, 200 μl of PBS containing 1% BSA (1% BSA/PBS) was added to each of the wells and left to stand for 10 to 20 minutes at ambient temperature. The human anti-pig preparations were diluted to between 15 to 70 μg of eluted protein per ml of 1% BSA/PBS. The BSA/PBS was removed and 100 μl of diluted anti-pig preparation was added to the appropriate wells, then incubated at 4° C. for 16 hours. The antibody preparations were removed and the wells were washed 4 times with PBS (200 μl/wash). Alkaline phosphatase-conjugated reagents (anti-human polyvalent (α, γ and μ chain specific), anti-human IgG (γ chain specific) and anti-human IgM (μ chain specific)) from Sigma Chemical Company (St. Louis, Mo., U.S.A.) were each diluted 1/500 in 1% BSA/PBS. One hundred μl of this mixture was added to each well. After 2 hours, wells were washed four times with PBS, then 100 μl/well of 1.0 mg of p-nitrophenyl phosphate/ml of 1 M diethanolamine-HCl (pH 9.8) containing 19% BSA and 500 μM MgCl2 was added. After 1 hour, optical densities at 405 nm (O.D.) were measured using a Microplate Autoreader (Model EL 309, BIO-TEK Instruments, Winooski, Vt., U.S.A.). The O.D. results for BSA-coated wells were subtracted from the results for the glycoconjugate-BSA-coated wells for each preparation. The assays were performed in duplicate.

[3] = system: Human Anti-Pig Heart antibodies; assay: ELISA: human antibodies eluted from pig heart binding to carbohydrate-BSA antigens; details: for Optical Density (405 nm): BSA well O.D. subtracted; for O.D. readings: most of the human anti-pig heart preparations
Method: as §1

[4] = system: human antibodies eluted from pig heart, pig kidney and/or pig red cell stroma; assay: ELISA: human anti-pig antibody preparations overall binding to carbohydrate antigens
Method: Organs from two populations of pigs were used to purify human anti-pig antibodies. The pig strains were Poland China and Yorkshire. Antibody preparations were obtained by perfusing 100-200 ml of human plasma (O or AB) through pig hearts, pig kidneys or through a column containing solid support coated with pig red cell stroma. After washing the tissues thoroughly with 0.15 M NaCl, the retained antibodies were eluted from the tissue or column using 200 ml of 3M NaSCN. The antibodies were concentrated, and then the protein content determined. Carbohydrate antigens were made by covalent binding of the synthetic oligosaccharides with an aliphatic linking arm (CH2)8COOCH3 to BSA as described by Pinto and Bundle (1983)^19 and/or Lemieux, Bundle, Baker (U.S. Pat. No. 4,137,401)^13 (ten to twenty haptens per molecule of BSA). Example 5, infra, describes this procedure as applied to carbohydrate 2 of FIG. 1A. Structures and trivial names of some of the monosaccharides and oligosaccharides used are included in FIGS. 1A to 1H. The use of synthetic carbohydrate structures to detect antibody binding has been previously described in U.S. Pat. No. 4,137,401^13. […] After 1 hour, optical densities at 405 nm (O.D.) were measured using a Microplate Autoreader (Model EL 309, BIO-TEK Instruments, Winooski, Vt., U.S.A.). […]

[5] = Human Anti-Pig Kidney preparation 5 A°, human O plasma adsorbed onto tissue
[6] = Human Anti-Pig Kidney preparation 5 B^AB, human AB plasma adsorbed onto tissue
[7] = Human Anti-Pig Kidney preparation 6 A°, human O plasma
[8] = Human Anti-Pig Kidney preparation 6 B^AB, human AB plasma
[9] = Human Anti-Pig Kidney preparation 7 A^AB, human AB plasma
[10] = Human Anti-Pig Kidney preparation 7 B°, human O plasma
[11] = Human Anti-Pig Kidney preparation 8 A°, human O plasma, pig of A-phenotype
[12] = Human Anti-Pig Kidney preparation 9 B^AB, human AB plasma
[13] = Human Anti-Pig Heart preparation 5^AB, human AB plasma
[14] = Human Anti-Pig Heart preparation 6°, human O plasma
[15] = Human Anti-Pig Heart preparation 7^AB, human AB plasma
[16] = Human Anti-Pig Heart preparation 9°, human O plasma

| Compound | cytotoxic effect of antibodies to the pig cell line [1] | Optical Density (405 nm) [2, 5] | Optical Density (405 nm) [2, 6] | Optical Density (405 nm) [2, 7] | Optical Density (405 nm) [2, 8] | Optical Density (405 nm) [2, 9] | Optical Density (405 nm) [2, 10] | Optical Density (405 nm) [2, 11] | Optical Density (405 nm) [2, 12] | Optical Density (405 nm) [3, 13] | Optical Density (405 nm) [3, 14] | Optical Density (405 nm) [3, 15] | Optical Density (405 nm) [3, 16] | O.D. readings [3] | antibodies to the carbohydrate present in eluted antibody preparations ([4]; every preparation of antibodies tested (Table 1)) | reactivity in ELISA ([4]; majority of samples tested, including anti-pig heart and anti-pig kidney) |
| --- | --- | --- | --- | --- | --- | --- | --- | --- | --- | --- | --- | --- | --- | --- | --- | --- |
| C[C@@H]1O[C@@H](O[C@H]2C(O)O[C@H](CO)[C@H](O)[C@@H]2O[C@H]2O[C@H](CO)[C@H](O)[C@H](O)[C@H]2O)[C@@H](O)[C@H](O)[C@@H]1O (stereo partly shown) [B trisaccharide] | partially inhibited | – | – | – | – | – | – | – | – | – | – | – | – | – | – | – |
| CC(=O)N[C@@H]1[C@@H](O)[C@H](O[C@@H]2O[C@H](CO)[C@@H](O)[C@H](O)[C@H]2NC(C)=O)[C@@H](CO)O[C@H]1O [formula 26, βGlcNAc(1-4)βGlcNAc] | – | 0.4 | 0.3 | 0.2 | 0.4 | 0.9 | 0.1 | 0.0 | 0.1 | 0.5 | 0.2 | >2.0 | 1.7 | some of the highest readings | – | – |
| C[C@@H]1O[C@@H](O)[C@H](O)[C@H](O)[C@H]1O [formula 31, α-L-Rhamnose] | – | 0.2 | 0.0 | 0.3 | 0.5 | 1.7 | 0.1 | 0.0 | 0.1 | 0.7 | 0.4 | >2.0 | 0.6 | some of the highest readings | – | – |
| CC(=O)N[C@H]1[C@H](O[C@@H]2[C@H](O)[C@@H](O)[C@H](C)O[C@H]2O)O[C@H](CO)[C@@H](O)[C@@H]1O[C@@H]1O[C@@H](C)[C@H](O)[C@@H](O)[C@H]1O [formula 32, α-L-Rha(1-3)βGlcNAc(1-2)α-L-Rha] | – | 1.4 | 0.8 | 0.1 | 0.3 | 1.9 | 0.8 | 0.1 | 0.1 | 1.0 | 0.3 | 1.6 | 1.1 | some of the highest readings | – | – |
| (αGal(1-3)βGal(1-4)βGlc-O—(CH2)8CONH)17-BSA [formula 2] | – | 1.9 | 1.3 | >2.0 | >2.0 | 0.8 | 1.8 | 1.2 | >2.0 | 1.0 | 0.3 | 1.2 | 0.8 | – | present in every preparation | most reactivity |
| N-acetyl-β-D-Glucosaminide [formula 25] | – | 0.5 | 0.7 | 0.4 | 1.0 | 1.1 | 0.5 | 0.1 | 0.1 | 2.0 | 0.4 | >2.0 | 1.5 | some of the highest readings | – | – |
